The source of these data is PubChem BioAssay (NCI).

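Interpolation was linear, between the two tested concentrations surrounding the appropriate level; five concentrations were tested over 48 hours in 96-well plates. At the TGI there is no net growth.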

Among the test systems are PC-3 prostate; NCI/ADR-RES ovarian; CCRF-CEM leukemia; EKVX NSCLC; CAKI-1 renal; HT29 colon; OVCAR-8 ovarian; SK-MEL-28 melanoma; HS 578T breast; M14 melanoma; SF-295 CNS; LOX IMVI melanoma; DU-145 prostate.
What all share (experiment): inhibition of tumour cell growth, NCI panel, 48 h

For `CC1CN=C(N(Cc2ccccc2)C(=O)Nc2ccc(Cl)c(Cl)c2)S1` (stereo not drawn), the TGI was > 100 µM with PC-3 prostate; > 100 µM in the experiment with NCI/ADR-RES ovarian; > 10 µM with CCRF-CEM leukemia; > 100 µM in the experiment with EKVX NSCLC; > 100 µM with CAKI-1 renal; > 100 µM in the experiment on HT29 colon. Also, the TGI with OVCAR-8 ovarian was > 100 µM; with SK-MEL-28 melanoma, 68.8 µM; with HS 578T breast, > 100 µM; with M14 melanoma, 48.8 µM; with SF-295 CNS, > 10 µM; in the experiment with LOX IMVI melanoma, > 100 µM. In addition, the TGI with DU-145 prostate is > 100 µM.
For `CCOC(=O)c1sc2nc(SC)nc3c2c1NCN3c1ccc2c(c1)OCO2`, the TGI in the experiment with PC-3 prostate is 37.2 µM; with NCI/ADR-RES ovarian, 30.8 µM; with CCRF-CEM leukemia it was 32.9 µM; in the experiment on EKVX NSCLC, > 100 µM; in the experiment on CAKI-1 renal, > 100 µM; in the experiment on HT29 colon, > 100 µM. Also, the TGI with OVCAR-8 ovarian is 20.1 µM; with SK-MEL-28 melanoma it was > 100 µM; in the experiment with HS 578T breast, 8.07 µM; in the experiment on M14 melanoma, 71.2 µM; in the experiment on SF-295 CNS, 53.3 µM; in the experiment on LOX IMVI melanoma it was > 100 µM. In addition, the TGI in the experiment with DU-145 prostate is 39.7 µM.
Regarding `N[C@H](C(=O)O)[C@@H]1CC(Br)=NO1`, the TGI in the experiment with PC-3 prostate, in the experiment on NCI/ADR-RES ovarian, with CCRF-CEM leukemia, with EKVX NSCLC, in the experiment with CAKI-1 renal and in the experiment with HT29 colon was > 100 µM each time. For the same compound, the TGI with OVCAR-8 ovarian, in the experiment on SK-MEL-28 melanoma, in the experiment on HS 578T breast, in the experiment with M14 melanoma, in the experiment on SF-295 CNS and in the experiment with LOX IMVI melanoma was > 100 µM in each case. The TGI with DU-145 prostate is > 100 µM.
For the compound `N#Cc1nc(-c2ccco2)oc1N`, the TGI with PC-3 prostate, with NCI/ADR-RES ovarian, in the experiment with CCRF-CEM leukemia, in the experiment on EKVX NSCLC, in the experiment on CAKI-1 renal and in the experiment with HT29 colon was > 10 µM in each case. Also, the TGI in the experiment with OVCAR-8 ovarian, in the experiment on SK-MEL-28 melanoma, with HS 578T breast, with M14 melanoma, in the experiment with SF-295 CNS and with LOX IMVI melanoma was > 10 µM in each case. In addition, in the experiment on DU-145 prostate, the TGI was > 10 µM.
Consider `O=C(c1cccs1)N(C(=S)OCCOc1ccccc1)c1ccccc1`, for which the TGI in the experiment on PC-3 prostate is > 100 µM; in the experiment with NCI/ADR-RES ovarian it was 57.7 µM; in the experiment on CCRF-CEM leukemia it was 59.4 µM; in the experiment on EKVX NSCLC it was 78.8 µM; with CAKI-1 renal, 83.8 µM; in the experiment on HT29 colon it was 96.5 µM. The TGI with OVCAR-8 ovarian is 87.8 µM; in the experiment with SK-MEL-28 melanoma, 55.9 µM; in the experiment with HS 578T breast, > 100 µM; in the experiment on M14 melanoma, 37.1 µM; with SF-295 CNS, 71 µM; in the experiment with LOX IMVI melanoma, 33.3 µM. Also, in the experiment on DU-145 prostate, the TGI is > 100 µM.
Take `C=C1CC(c2ccc(OCCCN3C(=O)c4ccccc4C3=O)cc2)OC1=O` (stereo not drawn): the TGI was 10.9 µM in the experiment with PC-3 prostate; > 95.1 µM in the experiment on NCI/ADR-RES ovarian; 4.56 µM in the experiment on CCRF-CEM leukemia; 18.4 µM with EKVX NSCLC; 6.54 µM in the experiment with CAKI-1 renal; 9.24 µM in the experiment with HT29 colon. Also, the TGI in the experiment with OVCAR-8 ovarian amounted to 9.35 µM; in the experiment with SK-MEL-28 melanoma it was 3.98 µM; in the experiment on HS 578T breast, 20.4 µM; in the experiment on M14 melanoma, 9.09 µM; with SF-295 CNS, 25.5 µM; with LOX IMVI melanoma, 3.77 µM. This compound also returned a TGI with DU-145 prostate of 16.3 µM.
`CCOC(=O)C(C(=O)OCC)=C1NC2(c3ccccc3Nc3ccccc32)C(C#N)S1` (stereo not drawn): the TGI was 16.8 µM in the experiment on PC-3 prostate; 28.8 µM with NCI/ADR-RES ovarian; > 100 µM in the experiment with CCRF-CEM leukemia; 47.2 µM in the experiment with EKVX NSCLC; 53.7 µM in the experiment on CAKI-1 renal; 17.8 µM with HT29 colon. For the same compound, the TGI worked out at 30 µM with OVCAR-8 ovarian; 50.7 µM with SK-MEL-28 melanoma; 46.3 µM in the experiment on HS 578T breast; 19.8 µM in the experiment on M14 melanoma; 40 µM in the experiment on SF-295 CNS; 26.5 µM in the experiment with LOX IMVI melanoma. The same compound registered a TGI in the experiment with DU-145 prostate of 28.4 µM.
In the case of `O=C(c1ccccc1)N(C(=O)c1ccccc1)c1nc(SCc2ccccc2)ns1`, the TGI is 71 µM with PC-3 prostate; 78.7 µM in the experiment on NCI/ADR-RES ovarian; 65.3 µM in the experiment on CCRF-CEM leukemia; 68.7 µM in the experiment with EKVX NSCLC; > 100 µM with CAKI-1 renal; 84.8 µM in the experiment on HT29 colon. Also, the TGI was > 100 µM in the experiment with OVCAR-8 ovarian; 93.1 µM in the experiment on SK-MEL-28 melanoma; 86.3 µM in the experiment on HS 578T breast; 86.1 µM in the experiment with M14 melanoma; 79.1 µM in the experiment on SF-295 CNS; 60.4 µM in the experiment with LOX IMVI melanoma. Moreover, in the experiment with DU-145 prostate, the TGI is > 100 µM.
In the case of `N#Cc1c2c(c(N)oc1=O)C(c1ccccc1)CC(=O)N2` (stereo not drawn), the TGI in the experiment with PC-3 prostate, with NCI/ADR-RES ovarian, in the experiment with CCRF-CEM leukemia, in the experiment with EKVX NSCLC, with CAKI-1 renal and in the experiment on HT29 colon was > 100 µM in each case. The TGI with OVCAR-8 ovarian, in the experiment on SK-MEL-28 melanoma, in the experiment with HS 578T breast, with M14 melanoma, in the experiment on SF-295 CNS and with LOX IMVI melanoma was > 100 µM in each case. The TGI in the experiment with DU-145 prostate was > 100 µM.
`COc1ccc(OC)c(N(CN2C(=O)CCC2C(=O)O)C(C)=O)c1` (stereo not drawn): the TGI in the experiment with PC-3 prostate, in the experiment with NCI/ADR-RES ovarian, in the experiment with CCRF-CEM leukemia, in the experiment on EKVX NSCLC, in the experiment on CAKI-1 renal and in the experiment on HT29 colon was > 100 µM each time. Besides, the TGI in the experiment on OVCAR-8 ovarian, in the experiment on SK-MEL-28 melanoma, in the experiment on HS 578T breast, with M14 melanoma, in the experiment with SF-295 CNS and in the experiment with LOX IMVI melanoma was > 100 µM in each case. The TGI in the experiment with DU-145 prostate was > 100 µM.
Turning to `O=C(NC1CCN(Cc2ccccc2)CC1)c1ccc(I)cc1`, the TGI with PC-3 prostate, with NCI/ADR-RES ovarian, with CCRF-CEM leukemia, in the experiment with EKVX NSCLC, in the experiment with CAKI-1 renal and in the experiment with HT29 colon was > 100 µM each time. Moreover, the TGI in the experiment with OVCAR-8 ovarian, in the experiment with SK-MEL-28 melanoma, in the experiment on HS 578T breast, in the experiment with M14 melanoma, in the experiment on SF-295 CNS and in the experiment on LOX IMVI melanoma was > 100 µM each time. Further, in the experiment with DU-145 prostate, the TGI is > 100 µM.
